Entries after “also recorded” stand apart in the source; their conditions may differ.
Key:
Atoh1 [1] = assay: Steady-state abundance of Atoh1 in human 293T cells; assay type: cell-based
organ of Corti explants = assay: Sox2 lineage tracing of supporting cells in organ of Corti explants (hair cell generation); assay type: cell-based, mice; design: double-labeled cells positive for Sox2 lineage and myosin VIIa: dose or concentration left out as unconfirmed
Source text: Hair cell co-labeling with the lineage tag indicates derivation from a Sox2-positive cell (labeled with asterisks) and is thus evidence for newly generated hair cells by transdifferentiation of supporting cells. OHCs, at the bottom of the image, are delineated by a light gray bracket while IHCs, at the top of the image, are delineated by a white bracket. The scale bar is 25 μm.
(B, C) Effect of CK1 inhibition was significant.
Since CK1 inhibition stabilized Atoh1, we assessed its effect on hair cell generation in the cochlea. A Sox2-positive Cre-reporter strain crossed with CAG-TdTomato (Bramhall et al., Stem cell reports 2, 311-322 (2014)) was used to label all supporting cells for lineage tracing to follow supporting cells after CK1 inhibition.

[2] = test system: Aminoglycoside-exposed organ of Corti explants; assay: Sox2 lineage tracing in aminoglycoside-exposed organ of Corti explants (hair cell regeneration); assay type: cell-based
Procedure: Images of the basal turn of the lineage-traced organ of Corti damaged by gentamycin and treated with CK1 inhibitor D4476 for 72 hours. […] The scale bar is 25 μm.
Aminoglycoside-exposed organ of Corti explants^3 were treated with 10 μM D4476 for 72 hours and lineage traced.

Atoh1 [3] = assay: Atoh1 protein in newborn organ of Corti explants (Western blotting, densitometry); assay type: cell-based, mice; conditions: newborn mouse organ of Corti explants, 10 μM, 72 hours
Procedure: Effect of CK1 inhibition on Atoh1 upregulation in the organ of Corti. Newborn organs of Corti (P1) were treated with the CK1 inhibitor D4476 (10 uM) for 72 hours. Atoh1 were quantified after Western blotting by densitometry and normalized to a loading control (beta-actin).

[4] = test system: Atoh1-specific E-box activity; assay: Dual luciferase reporter assay with Atoh1 E-box associated motif (AtEAM) in HEK cells; assay type: cell-based; conditions: HEK cells with or without Atoh1 overexpression, overnight, normalized to Renilla luciferase
Procedure: Dual luciferase assay using a firefly reporter construct with an AtEAM motif in HEK cells. Experiments were done in triplicate, and data are presented as the mean±SEM after normalization to Renilla luciferase
DMSO or CK1 inhibitor D4476 was added to HEK with or without overexpression of Atoh1 for overnight to block the degradation of Atoh1 and therefore downstream Atoh1-specific E-box activity.
To further assess potential roles of CK1 in the control of Atoh1 signaling, we performed dual luciferase reporter assays using a firefly reporter construct with an Atoh1 E-box associated motif (AtEAM) and a Renilla control reporter. AtEAM is a ten […] Atoh1-specific binding motif that represents the site for the activity of Atoh1 in numerous downstream genes (Klisch et al., Proc Natl Acad Sci USA. 2011 February 22; 108(8):3288-93). Inhibition of CK1 by D4476 increased and overexpression of CK1 (specifically CK1δ and/or CK1ε) reduced Atoh1 downstream signaling (FIG. 7A).

Atoh1-Huwe1 binding = assay: Co-immunoprecipitation of Atoh1-Huwe1 binding and Atoh1 ubiquitylation in HEK cells; assay type: cell-based; conditions: HEK cells co-transfected with HA-ubiquitin and FLAG-Atoh1, 4 hours treatment, co-IP
Procedure: HEK cells were co-transfected with HA-ubiquitin and FLAG-Atoh1 plasmids for 48 hours and treated with CK1 inhibitors (PF-670462 or D4476) and/or proteasome inhibitor MG132 (10 μM) for 4 hours. Immunoprecipitation was performed under denaturing conditions with anti-FLAG antibody. Endogenous Huwe1 was detected with an anti-Huwe1 antibody. Atoh1 was detected with anti-FLAG while ubiquitin was detected with anti-HA antibodies.
To explore the effect of CK1 on proteasomal degradation of Atoh1, we performed co-IP experiments.

[5] = organ of Corti explants, 10 μM, 72 hours, vs DMSO

Row | SMILES | steady-state abundance of Atoh1 (Atoh1 [1]) | double-labeled cells positive for Sox2 lineage and myosin VIIa (organ of Corti explants; mid-base region of neonatal mouse cochlear tissue, 3 days after treatment) | number of reporter-labeled inner hair cells (IHCs) (organ of Corti explants; [5]) | number of reporter-labeled outer hair cells (OHCs) (organ of Corti explants; [5]) | hair cell generation in the organ of Corti (organ of Corti explants; summary statement) | Sox2-lineage-tagged hair cells (co-labeled with myosin VIIa and TdTomato) after aminoglycoside damage ([2]; gentamycin-damaged explants, 10 μM, 72 hours) | hair cell regeneration after aminoglycoside damage ([2]; summary statement) | Atoh1 protein in the cochlea based on densitometry (Atoh1 [3]) | Atoh1 downstream signaling (Atoh1-specific E-box activity) [4] | Atoh1-Huwe1 binding (Atoh1-Huwe1 binding) | ubiquitylation of Atoh1 (Atoh1-Huwe1 binding)
1 | NC(=O)c1ccc(-c2nc(-c3ccc4c(c3)OCCO4)c(-c3ccccn3)[nH]2)cc1 [D4476, 4-[4-(2,3-Dihydro-1,4-benzodioxin-6-yl)-5-(2-pyridinyl)-1H-imidazol-2-yl]benzamide] | increased the steady-state abundance of Atoh1 | found both in the inner hair cell and outer hair cell area | significantly increased; also recorded: significantly more | significantly increased; also recorded: significantly more | increase hair cell generation | resulted in an increase of Sox2-lineage-tagged hair cells; also recorded: indicated transdifferentiation of supporting cells | promote hair cell regeneration | caused stabilization of Atoh1 protein | increases Atoh1-specific E-box activity; also recorded: increased | diminished Atoh1-Huwe1 binding | diminished
2 | COc1cc(OC)c(C=C2C(=O)Nc3ccccc32)c(OC)c1 [IC-261, 1,3-Dihydro-3-[(2,4,6-trimethoxyphenyl)methylene]-2H-indol-2-one] | increased the steady-state abundance of Atoh1 |  |  |  |  |  |  |  |  |  | 
3 | Cl.Cl.Nc1nccc(-c2c(-c3ccc(F)cc3)ncn2C2CCCCC2)n1 [PF-670462, 4-[3-Cyclohexyl-5-(4-fluoro-phenyl)−3H-imidazol-4-yl]-pyrimidin-2-ylamine dihydrochloride] | increased the steady-state abundance of Atoh1 |  |  |  |  |  |  |  |  | diminished Atoh1-Huwe1 binding | diminished

Reference: patent US11185536B2, “Treatment of hearing loss by inhibition of casein kinase 1” (Massachusetts Eye & Ear Infirmary, priority 2015, dated 2021)
